Measured values taken from ChEMBL document CHEMBL1150825, “Anti-HIV prenylated flavonoids from Monotes africanus” (J Nat Prod, 2001).
Converted amounts (≈) assume the structure as drawn.

System: Human immunodeficiency virus
Assay: Antiviral activity against HIV assessed as protection against virus-induced cytopathicity by cell based XTT assay; call rule not given here
Type: functional, organism-based
[1] = Human immunodeficiency virus 1, read-out: EC50

Structure (SMILES)	EC50	IC50 (Human immunodeficiency virus 1)	EC50 [1]
C=CC(C)(C)c1c(O)cc2c(c1O)C(=O)C[C@@H](c1ccc(O)cc1)O2	Not Active		
CC(C)=CCc1c(O)c(CC=C(C)C)c2c(c1O)C(=O)[C@H](O)[C@@H](c1ccc(O)cc1)O2		4.7 µg/mL (≈ 11.1 µM)	2.1 µg/mL (≈ 4.95 µM)
CC(C)=CCc1c(O)c(CC=C(C)C)c2oc(-c3ccc(O)cc3)c(O)c(=O)c2c1O		5.8 µg/mL (≈ 13.7 µM)	2.4 µg/mL (≈ 5.68 µM)
CC(C)=CCC/C(C)=C/Cc1c(O)cc2c(c1O)C(=O)[C@H](O)[C@@H](c1ccc(O)cc1)O2 [BONANNIOL A]	Not Active		
CC(C)=CCc1c(O)c(CC=C(C)C)c2c(c1O)C(=O)C[C@@H](c1ccc(O)cc1)O2 [LONCHOCARPOL A]		2.7 µg/mL (≈ 6.61 µM)	1.3 µg/mL (≈ 3.18 µM)
CC(C)=CCC/C(C)=C/Cc1c(O)cc2oc(-c3ccc(O)cc3)c(O)c(=O)c2c1O [MACARANGIN]	Not Active		
